We go through 9 compounds from US11667631B2, “FGFR4 inhibitor, preparation method therefor, and applications thereof” (Jiangsu Hansoh Pharmaceutical Group Co., Ltd., priority 2016, dated 2023).

A short description of data set [1]: Pharmacokinetic (PK) analysis in rats. Type of data set: in vivo, Sprague Dawley (SD) rats. The note with it: SD rats, single intragastric administration, 5 mg/kg; for Peak Time tmax: (sampling in hours); for AUC(0-t) / AUC(0-inf) / half-life / MRT / Cmax: Sprague-Dawley, rat, plasma, po; for AUC(0-t): read-out: Area Under Curve AUC0-t; for AUC(0-inf): read-out: Area Under Curve AUC0-∞; for half-life: read-out: Half-Time t1/2 (converted); for MRT: read-out: Mean Residence Time MRT; for Cmax: read-out: Plasma Concentration Cmax. Summed up: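 Intravenous blood (0.2 ml) was collected into K2EDTA and centrifuged to obtain plasma. Plasma (40 μL) was protein-precipitated with 160 μL acetonitrile. Compound levels were measured by LC/MS/MS on a C18 column using 0.1% formic acid in water and acetonitrile at 0.8 mL/min.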

Another data set has as its system HuH-7 cells. Put plainly: Inhibition of HuH-7 cell proliferation (CellTiter-Glo). It counts as cell-based. The note with it: Homo sapiens; HuH-7 cell proliferation, 72 hours, CellTiter-Glo; read-out: HuH-7 IC50. Summed up: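 HuH-7 cells plated and left 16–24 h, then exposed to serially diluted compound for 72 h at 37 °C, 5% CO2. Viability read by CellTiter-Glo luminescence. IC50 obtained by curve fitting of inhibition rates.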
(In general: ATP-based viability assays read luminescence as a measure of living cells.)

The target in the next data set is FGFR1 kinase (Homo sapiens (Human), UniProt P11362). Put plainly: Enzymologic experiment of FGFR1 (TR-FRET). It counts as biochemical. The note with it: FGFR1 kinase activity. In outline:
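FGFR1 at 0.1˜5 nM final with substrate peptide 5˜50 nM and ATP 10˜200 μM final, 0.5˜3 h at room temperature. Stopped with EDTA plus labeled antibody for 1 h; TR-FRET signal read at 665 nm, IC50 fitted from inhibition rates.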

A further data set has as its system SK-HEP-1 cells. Description: Inhibition of SK-HEP-1 cell proliferation (CellTiter-Glo). Type of data set: cell-based. The settings on record: Homo sapiens, SK-HEP1; SK-HEP-1 cell proliferation, 72 hours, CellTiter-Glo; read-out: SK-HEP-1 IC50. Summed up:
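Cells seeded and allowed to attach 16–24 h, then exposed to serially diluted compound for 72 h at 37 °C, 5% CO2. Viability read by CellTiter-Glo luminescence; IC50 fitted from inhibition rates across concentrations.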

Another data set concerns the target FGFR4 kinase (Homo sapiens (Human), UniProt P22455). Description: Enzymologic experiment of FGFR4 (TR-FRET). The settings on record: FGFR4 kinase activity. Type of data set: biochemical. Here is the method: In this experiment, the inhibitory effect of the compounds on FGFR4 kinase activity was tested by a fluorescence resonance energy transfer (TR-FRET) method, and the half maximal inhibitory concentration (IC50) of the compounds on the FGFR4 kinase activity was determined.
2) 1˜5 μL of diluted solution in gradient of the compound was added.
3) 1˜5 μL of a substrate mixture containing substrate polypeptide with a final concentration of 5˜50 nM and ATP with a final concentration of 10˜200 μM was added.
4) The mixture was incubated for 0.5˜3 hours at room temperature.
5) 10 μL of EDTA and a test solution comprising labeled antibody were added, and the plate was incubated for 1 hour at room temperature.
7) The inhibition rates were calculated according to the fluorescence signal values.

For a further data set, the system named is Hep 3B cells. Put plainly: Inhibition of Hep 3B cell proliferation (CellTiter-Glo). It counts as cell-based. The note with it: Homo sapiens, Hep3B; Hep 3B cell proliferation, 72 hours, CellTiter-Glo; read-out: Hep 3B IC50.
A further data set relates to Hep 3B cell line tumor. Put plainly: Pharmacodynamics test in vivo, Hep 3B tumor-bearing nude mice. The note with it: Mus musculus, Hep3B, oral 30 mg/kg, 2 times/day, read-out: Tumor inhibition rate. Here is the method:
a, A Hep 3B cell line was taken from the cell bank, and the cells were resuscitated with the MEM culture medium (MEM+10% FBS+1% Glu+1% SP). The cells were placed in the cell culture bottle after resuscitation (cell type, date, and the name of the culturing person were marked on the bottle wall) and were incubated in a CO2 Incubator (the incubator temperature was 37° C., and the CO2 concentration was 5%).
b, The cells were passaged after 80-90% of the bottom of the culture bottle was covered by the cells. After passage, the cells were further incubated in the CO2 incubator. The process was repeated until the number of cells met the pharmacodynamic requirements in vivo.
c, The cultured cells were collected and counted by automatic cell counter. According to the counting results, the cells were resuspended with PBS to prepare a cell suspension (density: 7×10^7/mL), which was placed in the ice box for use.
a, Nude mouse was marked with a disposable universal ear tag for mouse and rat before inoculation, and the skin of the inoculated site was disinfected with 75% medical alcohol.
b, At the time of inoculation, the cell suspension was mixed well, 0.1˜1 mL of cell suspension was taken with a 1 mL syringe, after removing air bubbles, and the syringe was placed on an ice bag for use.
c, The nude mice were inoculated successively (the inoculated site was located on the right shoulder of the right back of the nude mice, and inoculated subcutaneously with 0.1 mL of cell suspension).
a, Tumor was measured on Day 14 to Day 16 after inoculation depending on the tumor growth, and tumor size was calculated.
Tumor volume calculation: tumor volume (mm^3)=length (mm)×width (mm)×width (mm)/2
b, According to the size of the tumor, the mice were grouped by random grouping.
c, According to the results of the grouping, the test drug was administered (administration method: oral administration, administration dose: 30 mg/kg, administration volume: 10 mL/kg, administration frequency: 2 times/day, […], vehicle: 0.5% CMC/1% Tween 80).
d, The tumor was measured and weighed twice a week after the test drug was administrated.
e, Animals were euthanized at the end of the test.

Where two headings read alike, the source gives them in different places.

Chain of FGFR1 kinase (P11362 22-822): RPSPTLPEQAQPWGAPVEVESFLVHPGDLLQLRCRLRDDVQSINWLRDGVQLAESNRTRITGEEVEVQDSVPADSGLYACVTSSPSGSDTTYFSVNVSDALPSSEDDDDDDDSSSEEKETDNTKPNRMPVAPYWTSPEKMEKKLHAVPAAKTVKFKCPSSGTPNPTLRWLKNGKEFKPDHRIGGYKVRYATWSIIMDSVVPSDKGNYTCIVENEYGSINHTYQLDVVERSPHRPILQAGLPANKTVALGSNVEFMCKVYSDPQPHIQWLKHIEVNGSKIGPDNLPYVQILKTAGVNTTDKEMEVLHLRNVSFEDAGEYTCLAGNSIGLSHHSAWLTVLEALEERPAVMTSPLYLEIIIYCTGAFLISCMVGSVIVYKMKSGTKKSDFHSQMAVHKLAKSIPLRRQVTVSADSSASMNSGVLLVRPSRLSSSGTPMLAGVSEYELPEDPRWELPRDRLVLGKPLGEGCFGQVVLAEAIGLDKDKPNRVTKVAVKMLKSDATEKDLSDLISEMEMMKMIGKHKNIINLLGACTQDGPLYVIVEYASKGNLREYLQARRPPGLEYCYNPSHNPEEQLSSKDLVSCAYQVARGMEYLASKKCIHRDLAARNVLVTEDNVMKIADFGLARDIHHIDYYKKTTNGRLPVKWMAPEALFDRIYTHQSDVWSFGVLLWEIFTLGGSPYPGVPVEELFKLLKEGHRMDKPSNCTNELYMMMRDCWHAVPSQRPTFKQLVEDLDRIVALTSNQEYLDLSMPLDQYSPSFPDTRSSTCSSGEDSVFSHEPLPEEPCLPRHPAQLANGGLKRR
Chain of FGFR4 kinase (P22455 22-802): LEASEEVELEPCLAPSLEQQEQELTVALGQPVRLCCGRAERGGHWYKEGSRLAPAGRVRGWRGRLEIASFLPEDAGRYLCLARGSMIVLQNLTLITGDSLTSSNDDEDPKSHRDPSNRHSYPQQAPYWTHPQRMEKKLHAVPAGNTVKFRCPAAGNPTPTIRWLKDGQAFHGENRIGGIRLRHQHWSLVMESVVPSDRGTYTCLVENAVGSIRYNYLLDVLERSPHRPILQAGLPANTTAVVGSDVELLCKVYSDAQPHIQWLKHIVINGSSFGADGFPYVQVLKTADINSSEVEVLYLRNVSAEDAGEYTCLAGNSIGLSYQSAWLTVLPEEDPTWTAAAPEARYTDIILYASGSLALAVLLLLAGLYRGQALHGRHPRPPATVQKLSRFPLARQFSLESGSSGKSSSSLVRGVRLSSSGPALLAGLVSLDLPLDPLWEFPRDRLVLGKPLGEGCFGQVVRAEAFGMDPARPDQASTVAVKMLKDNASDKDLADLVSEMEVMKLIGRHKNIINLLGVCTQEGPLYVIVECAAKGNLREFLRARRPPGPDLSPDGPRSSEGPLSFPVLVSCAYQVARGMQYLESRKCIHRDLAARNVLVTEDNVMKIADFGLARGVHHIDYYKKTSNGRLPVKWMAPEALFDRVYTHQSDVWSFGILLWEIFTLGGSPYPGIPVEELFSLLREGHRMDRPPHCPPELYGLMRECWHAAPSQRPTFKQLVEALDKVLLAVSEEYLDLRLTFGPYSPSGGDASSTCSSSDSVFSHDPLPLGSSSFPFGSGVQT

A word on the MRT: it is the average time that molecules of a dose stay in the body. For orientation: IC50 means the point on the concentration scale where inhibition reaches its midpoint. As to `COc1ccccc1Nc1cc(NC(=O)N2CCCc3cc(CN4CCOCC4=O)c(C=O)nc32)ncc1C#N` [Example 8, N-(5-Cyano-4-((2-methoxyphenyl)amino)pyridin-2-yl)-7-formyl-6-((3-carbonylmorpholino)methyl)-3,4-dihydro-1,8-naphthyridin-1(2H)-carboxamide], in data set [1], the Peak Time tmax stood at 2 h, the AUC(0-t) was found to be 4790 ng·h/mL, the AUC(0-inf) is 4940 ng·h/mL and the half-life is 1.16 h. For the same compound, in data set [1], the MRT worked out at 3.74 h and the Cmax was 2060 ng/mL. In addition, the 50% inhibitory concentration (IC50) with HuH-7 cells turned out to be 8.6 nM. The compound further returned an IC50 against FGFR1 kinase of over 10000 nM. Moreover, the IC50 in the data set with SK-HEP-1 cells is over 10000 nM. Moreover, the IC50 at FGFR4 kinase was 3.4 nM. In addition, the IC50 with Hep 3B cells was found to be 0.9 nM.
Regarding `COC1(CNc2cc(NC(=O)N3CCCc4cc(CN5CCCOCC5=O)c(C=O)nc43)ncc2C#N)CC1` [Example 25, N-(5-Cyano-4-(((1-methoxycyclopropyl)methyl)amino)pyridin-2-yl)-7-formyl-6-((3-carbonyl-1,4-oxazepin-4-yl)methyl)-3,4-dihydro-1,8-naphthyridin-1(2H)-carboxamide], the inhibition in vivo at 30 mg/kg in the data set on Hep 3B cell line tumor (240 h, 10 days of administration) amounted to 68.4%.
As to `COC[C@@H](C)Oc1cc(NC(=O)N2CCCc3cc(CN4CCCOCC4=O)c(C=O)nc32)ncc1C#N` [Example 28, (R)-N-(5-Cyano-4-((1-methoxypropan-2-yl)oxy)pyridin-2-yl)-7-formyl-6-((3-carbonyl-1,4-oxazepin-4-yl)methyl)-3,4-dihydro-1,8-naphthyridin-1(2H)-carboxamide], in the data set with Hep 3B cell line tumor (216 h, 9 days of administration), the inhibition in vivo at 30 mg/kg is 74.3%.
As to `CO[C@H]1COCC1Nc1cc(NC(=O)N2CCCc3cc(CN4C(=O)OCC4C)c(C=O)nc32)ncc1C#N` (stereo partly drawn) [Example 46, N-(5-Cyano-4-trans-(((3,4)-4-methoxytetrahydrofuran-3-yl)amino)pyridin-2-yl) -7-formyl-6-(((S)-4-methyl-2-carbonyloxazolidin-3-yl)methyl)-3,4-dihydro-1,8-naphthyridin-1(2H)-carboxamide], in data set [1], the Peak Time tmax worked out at 4 h, the AUC(0-t) was determined as 1530 ng·h/mL, the AUC(0-inf) turned out to be 1530 ng·h/mL and the half-life is 2.55 h. Besides, in data set [1], the MRT is 6.24 h and the Cmax came to 1930 ng/mL. Besides, in the data set with HuH-7 cells, the IC50 turned out to be 44.4 nM. Moreover, the IC50 against FGFR1 kinase was over 10000 nM. The IC50 in the data set with SK-HEP-1 cells was over 10000 nM. Further, on FGFR4 kinase, the midpoint of inhibition, the IC50, lay at 2.93 nM. For the same compound, the IC50 with Hep 3B cells was found to be 12.7 nM.
Regarding `CONc1cc(NC(=O)N2CCCc3cc(CN4CCOCC4=O)c(C=O)nc32)ncc1C#N` [Example 54, N-(5-Cyano-4-(methoxyamino)pyridin-2-yl)-7-formyl-6-((3-carbonylmorpholino)methyl)-3,4-dihydro-1,8-naphthyridine-1(2H)-carboxamide], in data set [1], the Peak Time tmax was 4 h, the AUC(0-t) amounted to 5530 ng·h/mL, the AUC(0-inf) came out at 5690 ng·h/mL and the half-life was 0.98 h. In data set [1], the MRT was determined as 3.86 h and the Cmax came out at 1290 ng/mL. For the same compound, in the data set on HuH-7 cells, the IC50 worked out at 24.1 nM. The same compound gave an IC50 on FGFR1 kinase of over 10000 nM. For the same compound, the IC50 with SK-HEP-1 cells is over 10000 nM. Moreover, half-maximal inhibition against FGFR4 kinase (IC50) was put at 2.77 nM. The IC50 with Hep 3B cells amounted to 17.5 nM.
As to `CO[C@H]1CCN(c2cc(NC(=O)N3CCCc4cc(CN5CCN(C)CC5=O)c(C=O)nc43)ncc2C#N)C1` [Example 63, (S)-N-(5-Cyano-4-(3-methoxypyrrolidin-1-yl)pyridin-2-yl)-7-formyl-6-((4-methyl-2-carbonylpiperazin-1-yl)methyl)-3,4-dihydro-1,8-naphthyridin-1(2H)-carboxamide], in data set [1], the Peak Time tmax amounted to 2 h, the AUC(0-t) stood at 4990 ng·h/mL, the AUC(0-inf) is 4030 ng·h/mL and the half-life was 0.91 h. For the same compound, in data set [1], the MRT was found to be 2.7 h and the Cmax was found to be 2060 ng/mL. The IC50 with HuH-7 cells came to 28.9 nM. Besides, the IC50 against FGFR1 kinase is over 10000 nM. The IC50 with SK-HEP-1 cells was over 10000 nM. The IC50 against FGFR4 kinase was 2.49 nM. Besides, the IC50 in the data set with Hep 3B cells amounted to 13.8 nM.
In the case of `CO[C@H]1COCC1Nc1cc(NC(=O)N2CCCc3cc(CN4CCOCC4=O)c(C=O)nc32)ncc1C#N` (stereo partly drawn) [Example 66, N-(5-Cyano-4-(((trans)-4-methoxytetrahydrofuran-3-yl)amino)pyridin-2-yl)-7-formyl-6-((3-carbonylmorpholino)methyl)-3,4-dihydro-1,8-naphthyridin-1(2H)-carboxamide], in data set [1], the Peak Time tmax was 4 h, the AUC(0-t) was 2480 ng·h/mL, the AUC(0-inf) is 2540 ng·h/mL and the half-life is 1 h. Moreover, in data set [1], the MRT is 3.6 h and the Cmax worked out at 1880 ng/mL. In addition, in the data set with HuH-7 cells, the IC50 was 11.7 nM. The IC50 at FGFR1 kinase is over 10000 nM. Moreover, in the data set with SK-HEP-1 cells, the IC50 is over 10000 nM. Inhibition on FGFR4 kinase was half-maximal at 0.97 nM (IC50). The IC50 in the data set with Hep 3B cells was determined as 3.3 nM.
With `CO[C@H]1COCC1Oc1cc(NC(=O)N2CCCc3cc(CN4CCOCC4=O)c(C=O)nc32)ncc1C#N` (stereo partly drawn) [Example 67, N-(5-Cyano-4-(((3,4)-trans-4-methoxytetrahydrofuran-3-yl)oxy)pyridin-2-yl)-7-formyl-6-((3-carbonylmorpholino)methyl)-3,4-dihydro-1,8-naphthyridin-1(2H)-carboxamide], in data set [1], the Peak Time tmax worked out at 4 h, the AUC(0-t) was found to be 3990 ng·h/mL, the AUC(0-inf) was found to be 4070 ng·h/mL and the half-life is 0.88 h. In data set [1], the MRT is 4.17 h and the Cmax was determined as 2840 ng/mL. Also, in the data set on HuH-7 cells, the IC50 is 29.5 nM. The compound also registered an IC50 against FGFR1 kinase of over 10000 nM. Besides, the IC50 in the data set on SK-HEP-1 cells was over 10000 nM. The IC50 against FGFR4 kinase was 2.31 nM. Moreover, in the data set with Hep 3B cells, the IC50 worked out at 16.7 nM.
In the case of `CO[C@H]1CCOCC1Nc1cc(NC(=O)N2CCCc3cc(CN4CCOCC4=O)c(C=O)nc32)ncc1C#N` (stereo partly drawn) [Example 70, N-(5-Cyano-4-(((3,4)-trans-4-methoxytetrahydro-2H-pyran-3-yl)amino)pyridin-2-yl)-7-formyl-6-((3-carbonylmorpholino)methyl)-3,4-dihydro-1,8-naphthyridin-1(2H) -carboxamide], the IC50 in the data set with HuH-7 cells is 19.4 nM; on FGFR1 kinase, over 10000 nM; in the data set with SK-HEP-1 cells it was over 10000 nM; on FGFR4 kinase, 1.34 nM; in the data set on Hep 3B cells, 6.2 nM.
